Reference: US9974766B2, “Prenylated isoflavones for treatment of subjects with multidrug-resistant cancer” (Macau University of Science and Technology, priority 2015, dated 2018)
“Also recorded” adds a separate entry of the source.

Key:
[1] = test system: MCF-7 (Breast) (Taxol sensitive); assay: MTT cytotoxicity assay, MCF-7 Taxol sensitive; format: cell-based; details: Homo sapiens, MCF7, 72 h, 3 days
Procedure: (§1) Cell cultures and cytotoxicity assays have been carried out. […] Subsequently, 10 μL of MTT reagents is added to each well and incubated at 37° C. for 4 hours followed by the addition of 100 μL solubilization buffer (10% SDS in 0.01 mol/L HCl) and overnight incubation. Absorbance at 585 nm is determined from each well the next day. The percentage of cell viability is calculated using the following formula: Cell viability (%)=Cells number treated/Cells number DMSO control×100. Data are obtained from three independent experiments. The resistant factor is calculated by dividing the IC50 in resistant cells by its IC50 against drug-sensitive cells.

[2] = test system: MCF-7 (Breast) (Taxol resistant); assay: MTT cytotoxicity assay, MCF-7 Taxol resistant; format: cell-based, human; details: for IC50: Homo sapiens, MCF7, 72 h, MTT, 3 days; for Resistant Factor: IC50 in Taxol resistant MCF-7 divided by IC50 in Taxol sensitive MCF-7
Procedure: as §1

[3] = test system: A549 (Lung) (Taxol sensitive); assay: MTT cytotoxicity assay, A549 Taxol sensitive; format: cell-based; details: Homo sapiens, A549, 72 h, 3 days
Procedure: as §1

[4] = test system: A549 (Lung) (Taxol resistant); assay: MTT cytotoxicity assay, A549 Taxol resistant; format: cell-based, human; details: for IC50: Homo sapiens, A549, 72 h, MTT, 3 days; for Resistant Factor: IC50 in Taxol resistant A549 divided by IC50 in Taxol sensitive A549
Procedure: as §1

[5] = test system: HCT-8 (Colon) (Taxol sensitive); assay: MTT cytotoxicity assay, HCT-8 Taxol sensitive; format: cell-based; details: Homo sapiens, HCT-8, 72 h, 3 days
Procedure: as §1

[6] = test system: HCT-8 (Colon) (Taxol resistant); assay: MTT cytotoxicity assay, HCT-8 Taxol resistant; format: cell-based, human; details: for IC50: Homo sapiens, HCT-8, 72 h, MTT, 3 days; for Resistant Factor: IC50 in Taxol resistant HCT-8 divided by IC50 in Taxol sensitive HCT-8
Procedure: as §1

P-glycoprotein [7] = biological target: P-glycoprotein (Homo sapiens, UniProt P08183); assay: Rho123 efflux assay in A549 taxol-resistant lung cancer cells; details: Example 8, 10 μM of each compound, 24 h, then Rho123 1 h
Chain of P-glycoprotein (Homo sapiens, UniProt P08183) (P08183 whole entry): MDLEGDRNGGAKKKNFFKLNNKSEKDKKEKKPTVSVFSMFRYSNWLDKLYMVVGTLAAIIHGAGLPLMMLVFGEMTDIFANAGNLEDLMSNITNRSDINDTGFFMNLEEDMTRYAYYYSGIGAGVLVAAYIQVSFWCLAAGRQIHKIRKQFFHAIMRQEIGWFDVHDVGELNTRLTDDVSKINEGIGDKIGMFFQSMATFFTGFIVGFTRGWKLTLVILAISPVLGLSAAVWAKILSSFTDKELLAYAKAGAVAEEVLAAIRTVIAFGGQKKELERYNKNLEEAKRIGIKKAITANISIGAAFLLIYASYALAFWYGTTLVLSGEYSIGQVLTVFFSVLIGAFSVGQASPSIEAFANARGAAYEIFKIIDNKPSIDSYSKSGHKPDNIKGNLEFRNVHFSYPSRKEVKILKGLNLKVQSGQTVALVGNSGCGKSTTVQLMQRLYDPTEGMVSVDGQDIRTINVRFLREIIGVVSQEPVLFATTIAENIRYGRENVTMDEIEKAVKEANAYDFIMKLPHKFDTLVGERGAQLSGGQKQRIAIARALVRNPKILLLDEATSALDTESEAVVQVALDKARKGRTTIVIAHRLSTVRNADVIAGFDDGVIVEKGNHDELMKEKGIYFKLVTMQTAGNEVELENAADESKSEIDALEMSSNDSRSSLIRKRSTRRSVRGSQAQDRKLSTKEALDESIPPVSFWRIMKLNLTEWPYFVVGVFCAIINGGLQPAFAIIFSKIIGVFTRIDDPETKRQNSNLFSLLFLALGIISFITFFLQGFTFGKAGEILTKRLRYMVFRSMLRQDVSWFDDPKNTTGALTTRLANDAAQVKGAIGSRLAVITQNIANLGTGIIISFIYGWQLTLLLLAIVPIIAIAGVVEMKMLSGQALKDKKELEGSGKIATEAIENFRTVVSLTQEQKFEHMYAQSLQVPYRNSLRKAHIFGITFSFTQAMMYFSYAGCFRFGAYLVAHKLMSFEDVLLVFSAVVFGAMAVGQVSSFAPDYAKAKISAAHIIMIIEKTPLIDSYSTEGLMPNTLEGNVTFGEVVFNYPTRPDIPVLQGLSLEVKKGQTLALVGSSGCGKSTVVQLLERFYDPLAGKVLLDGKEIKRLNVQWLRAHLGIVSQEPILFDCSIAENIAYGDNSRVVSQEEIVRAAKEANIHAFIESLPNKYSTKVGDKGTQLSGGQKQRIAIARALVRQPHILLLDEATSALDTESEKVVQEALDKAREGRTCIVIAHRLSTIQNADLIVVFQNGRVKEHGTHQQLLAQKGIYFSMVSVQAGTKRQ

[8] = test system: MCF-7 (Breast) (Dox sensitive); assay: MTT cytotoxicity assay, MCF-7 Dox sensitive; format: cell-based; details: Homo sapiens, MCF7, 72 h, 3 days
Procedure: as §1

[9] = test system: MCF-7 (Breast) (Dox resistant); assay: MTT cytotoxicity assay, MCF-7 Dox resistant; format: cell-based, human; details: for IC50: Homo sapiens, MCF7, 72 h, MTT, 3 days; for Resistant Factor: IC50 in Dox resistant MCF-7 divided by IC50 in Dox sensitive MCF-7
Procedure: as §1

[10] = test system: A549 taxol-resistant lung cancer cells; assay: Annexin V/propidium iodide flow cytometry of cell death, A549 taxol-resistant; format: cell-based, human; details: 1-10 μM pomiferin with 40 μM taxol, 24 h
Procedure: (§2) Cell death and viability are measured using an Annexin V staining kit (BD Biosciences, San Jose, Calif., USA). […] Cells were then harvested and analysed by multiparametric flow cytometry using FITC-Annexin V and propidium iodide staining (BD Biosciences, San Jose, Calif., USA) according to the manufacturer's instructions. Flow cytometry has been then carried out using a FACSCalibur flow cytometer (BD Biosciences, San Jose, Calif., USA). […] Data were obtained from three independent experiments.

[11] = test system: HCT-8 taxol-resistant colon cancer cells; assay: Annexin V/propidium iodide flow cytometry of cell death, HCT-8 taxol-resistant; format: cell-based, human; details: 1-10 μM pomiferin with 40 μM taxol, 24 h
Procedure: as §2

P-glycoprotein [12] = assay: Rho123 efflux assay in MCF-7 taxol/doxorubicin-sensitive breast cancer cells; details: MCF-7 drug-sensitive cells without P-glycoprotein expression; pomiferin 5-20 μM or verapamil 10 μM, 24 h, then Rho123 1 h

CC(=O)O[C@H]1C(=O)[C@@]2(C)[C@H]([C@H](OC(=O)c3ccccc3)[C@]3(O)C[C@H](OC(=O)[C@H](O)[C@@H](NC(=O)c4ccccc4)c4ccccc4)C(C)=C1C3(C)C)[C@]1(OC(C)=O)CO[C@@H]1C[C@@H]2O [Taxol, paclitaxel, reference compound]
IC50 [1]: < 0.001 µM | IC50 [2]: 5 µM | Resistant Factor [2]: 5000× | Resistant Factor ([2]; listed as taxol): over 5000 × | IC50 [3]: 0.0309 µM | IC50 [4]: 31.3 µM | Resistant Factor [4]: 1012.945× | Resistant Factor ([4]; listed as taxol): 1000 × | IC50 [5]: < 0.001 µM | IC50 [6]: 35.3 µM | Resistant Factor [6]: >35300× | Resistant Factor ([6]; listed as taxol): 35300 ×

COc1ccc(C2COc3c4c(c(CC=C(C)C)c(OC)c3C2=O)OC(C)(C)C=C4)cc1OC (stereo not shown) [pomiferin trimethyl ether]
P-glycoprotein inhibition (Rho123 accumulation) (P-glycoprotein [7]): showed P-glycoprotein inhibition with a different extent

CC1(C)C=Cc2c(c3c(c4c(=O)c(-c5ccc(O)c(O)c5)coc24)OC(C)(C)CC3)O1 [isopomiferin, 7,8-dihydro-3-(3,4-dihydroxyphenyl)-6,6,10,10-tetramethyl-4H,6H,10H-benzo[1,2-b:3,4-b′:5,6-b″]tripyran-4-one]
P-glycoprotein inhibition (Rho123 accumulation) (P-glycoprotein [7]): showed P-glycoprotein inhibition with a different extent; also recorded: comparable effect compared to pomiferin

CC1(C)C=Cc2c(c3c(c4c(=O)c(-c5ccc(O)cc5)coc24)OC(C)(C)CC3)O1 [isoosajin, 3,4-dihydro-11-(4-hydroxyphenyl)-2,2,6,6-tetramethyl-2H,6H,12H-benzo[1,2-b:3,4-b′:5,6-b″]tripyran-12-one]
P-glycoprotein inhibition (Rho123 accumulation) (P-glycoprotein [7]): showed P-glycoprotein inhibition with a different extent; also recorded: comparable effect compared to pomiferin

COc1ccc(-c2coc3c4c(c(CC=C(C)C)c(O)c3c2=O)OC(C)(C)C=C4)cc1 [osajin 4′-methyl ether]
P-glycoprotein inhibition (Rho123 accumulation) (P-glycoprotein [7]): showed P-glycoprotein inhibition with a different extent

CC(C)=CCc1c2c(c3occ(-c4ccc(O)c(O)c4)c(=O)c3c1O)C=CC(C)(C)O2 [pomiferin, 3-(3,4-dihydroxyphenyl)-5-hydroxy-8,8-dimethyl-6-(3-methylbut-2-enyl)pyrano[2,3-h] chromen-4-one]
IC50 [8]: 35.9 µM | IC50 [9]: 15.2 µM | Resistant Factor [9]: 0.42 × | IC50 [1]: 35.7 µM | IC50 [2]: 27.1 µM | Resistant Factor [2]: 0.76 × | Resistant Factor ([2]; listed as Pomiferin): 0.76× | IC50 [3]: 18.2 µM | IC50 [4]: 17.2 µM | Resistant Factor [4]: 0.95 × | Resistant Factor ([4]; listed as Pomiferin): 0.95× | IC50 [5]: 25.5 µM | IC50 [6]: 17.6 µM | Resistant Factor [6]: 0.69 × | Resistant Factor ([6]; listed as Pomiferin): 0.69× | effect on taxol-mediated cytotoxicity (cell death) [10]: significantly enhanced the taxol-mediated cytotoxicity | effect on taxol-mediated cytotoxicity (cell death) [11]: enhanced taxol-mediated cytotoxicity | Rho123 fluorescence signal / accumulation in cells (P-glycoprotein [12]): no difference in fluorescence signal compared with Rho123 stained cells

COc1cccc2c1C(=O)c1c(O)c3c(c(O)c1C2=O)C[C@@](O)(C(=O)CO)C[C@@H]3O[C@H]1C[C@H](N)[C@H](O)[C@H](C)O1 [doxorubicin, reference compound]
IC50 [8]: 0.463 µg/mL | IC50 [9]: 10 µg/mL | Resistant Factor [9]: 21.6 ×
